These results are taken from patent US12552783B2, “Modulators of proteolysis and associated methods of use” (Arvinas Operations, Inc., priority 2018, dated 2026).

Each structure is given as a SMILES string.

In this assay the target is KRas (Homo sapiens, UniProt P01116, G12C). In words: KRas degradation in NCI-H2030 cells by Western blot, normalized to GAPDH (data of Table 14). The assay is classed as cell-based. Also on record: host or cells: NCI-H2030. The settings on record: for Dmax: NCI-H2030. The procedure, abridged: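 After a day without serum, the G12C-homozygous cells received each compound at 0.3, 1 and 3 μM, with VHL-based degraders left for 24 h and other compounds for 72 h. DC50 is the concentration giving half-maximal degradation and DMax the maximal degradation, both taken from KRas levels normalized to GAPDH.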

On to `C=CC(=O)N1CCN(c2nc(NCCC(=O)N(C)CCOCCOCCOCCOCC(=O)N[C@H](C(=O)N3C[C@H](O)C[C@H]3C(=O)N[C@@H](C)c3ccc(-c4scnc4C)cc3)C(C)(C)C)nc3c(F)c(-c4cc(O)cc5ccccc45)c(Cl)cc23)CC1` [compound 194, (2S,4R)-1-((2S)-21-((4-(4-acryloylpiperazin-1-yl)-6-chloro-8-fluoro-7-(3-hydroxynaphthalen-1-yl)quinazolin-2-yl)amino)-2-(tert-butyl)-18-methyl-4,19-dioxo-6,9,12,15-tetraoxa-3,18-diazahenicosanoyl)-4-hydroxy-N-((S)-1-(4-(4-methylthiazol-5-yl)phenyl)ethyl)pyrrolidine-2-carboxamide], for which the “Percent Degradation at Indicated Concentration (μM): 0.3” value (“Percent Degradation … 0.3” for short) (H2030 cells, 0.3 μM) is recorded as “C (C ≤ 35)”. Further, the “Percent Degradation at Indicated Concentration (μM): 1” value (“Percent Degradation … 1” below) (H2030 cells, 1 μM) is “C (C ≤ 35)”. The “Percent Degradation at Indicated Concentration (μM): 3” value (“Percent Degradation … (μM): 3” for short) (H2030 cells, 3 μM) was “C (C ≤ 35)”. The Dmax (H2030 cells) was ≤ 35%.
As to `C=CC(=O)N1CCN(c2nc(NCCC(=O)N(C)CCOc3ccc4c(c3)CN(C3CCC(=O)NC3=O)C4=O)nc3c(F)c(-c4cc(O)cc5ccccc45)c(Cl)cc23)CC1` (centres unmarked) [compound 64, 3-((4-(4-acryloylpiperazin-1-yl)-6-chloro-8-fluoro-7-(3-hydroxynaphthalen-1-yl)quinazolin-2-yl)amino)-N-(2-((2-(2,6-dioxopiperidin-3-yl)-1-oxoisoindolin-5-yl)oxy)ethyl)-N-methylpropanamide], the “Percent Degradation … 0.3” value (H2030 cells, 0.3 μM) is given as “C (C ≤ 35)”. In addition, the “Percent Degradation … 1” value (H2030 cells, 1 μM) is given as “C (C ≤ 35)”. The “Percent Degradation … (μM): 3” value (H2030 cells, 3 μM) is given as “C (C ≤ 35)”. Further, the Dmax (H2030 cells) is ≤ 35%.
As for `C=CC(=O)N1CCN(c2nc(NCCC(=O)N(C)CCOCCOCCOCCNc3cccc4c3C(=O)N(C3CCC(=O)NC3=O)C4=O)nc3c(F)c(-c4cc(O)cc5ccccc45)c(Cl)cc23)CC1` (centres unmarked) [compound 58, 3-((4-(4-acryloylpiperazin-1-yl)-6-chloro-8-fluoro-7-(3-hydroxynaphthalen-1-yl)quinazolin-2-yl)amino)-N-(2-(2-(2-(2-((2-(2,6-dioxopiperidin-3-yl)-1,3-dioxoisoindolin-4-yl)amino)ethoxy)ethoxy)ethoxy)ethyl)-N-methylpropanamide], for the setting “H2030 cells, 0.3 μM”, the “Percent Degradation … 0.3” value is “C (C ≤ 35)”. Further, under “H2030 cells, 1 μM”, the “Percent Degradation … 1” value is on record as “C (C ≤ 35)”. In addition, the “Percent Degradation … (μM): 3” value (H2030 cells, 3 μM) is recorded as “C (C ≤ 35)”. Also, the maximal degradation (Dmax) (H2030 cells) was ≤ 35%.
Regarding `C=CC(=O)N1CCN(c2nc(NCCC(=O)N(C)CCOCCOCCOCC(=O)N[C@H](C(=O)N3C[C@H](O)C[C@H]3C(=O)N[C@@H](C)c3ccc(-c4scnc4C)cc3)C(C)(C)C)nc3c(F)c(-c4c(O)cccc4F)c(Cl)cc23)CC1` (atropisomer, axis not shown) [compound 209, (2S,4R)-1-((S)-18-((4-(4-acryloylpiperazin-1-yl)-6-chloro-8-fluoro-7-((S)-2-fluoro-6-hydroxyphenyl)quinazolin-2-yl)amino)-2-(tert-butyl)-15-methyl-4,16-dioxo-6,9,12-trioxa-3,15-diazaoctadecanoyl)-4-hydroxy-N-((S)-1-(4-(4-methylthiazol-5-yl)phenyl)ethyl)pyrrolidine-2-carboxamide], the “Percent Degradation at Indicated Concentration (μM)” value (H2030, 3 μM) is “C (Percent Degradation: C ≤ 35)”.
On to `C=CC(=O)N1CCN(c2nc(O[C@H](C)CN3CCC(OCCOCCNc4cccc5c4C(=O)N(C4CCC(=O)NC4=O)C5=O)CC3)nc3c2CCN(c2cc(O)cc4ccccc24)C3)CC1` (some centres unmarked) [compound 412], for which the “Percent Degradation at Indicated Concentration (μM)” value is on record as “C (Percent Degradation: C ≤ 35)” (H2030 cells, 0.3 μM); “C (Percent Degradation: C ≤ 35)” (H2030 cells, 1 μM); “C (Percent Degradation: C ≤ 35)” (H2030 cells, 3 μM).
Turning to `C=CC(=O)N1CCN(c2nc(NCCC(=O)N(C)CCOCCOCCOCCOc3ccc4c(c3)CN(C3CCC(=O)NC3=O)C4=O)nc3c(F)c(-c4c(O)cccc4F)c(Cl)cc23)CC1` [compound 93, 3-((4-(4-acryloylpiperazin-1-yl)-6-chloro-8-fluoro-7-((S)-2-fluoro-6-hydroxyphenyl)quinazolin-2-yl)amino)-N-(2-(2-(2-(2-((2-(2,6-dioxopiperidin-3-yl)-1-oxoisoindolin-5-yl)oxy)ethoxy)ethoxy)ethoxy)ethyl)-N-methylpropanamide], the Dmax is ≤ 35%. Further, the “Percent Degradation at Indicated Concentration (μM)” value (H2030, 0.3 μM) is recorded as “C (Percent Degradation: C ≤ 35)”. Also, the “Percent Degradation at Indicated Concentration (μM)” value (H2030, 1 μM) was “C (Percent Degradation: C ≤ 35)”. In addition, the “Percent Degradation at Indicated Concentration (μM)” value (H2030, 3 μM) is listed as “C (Percent Degradation: C ≤ 35)”.
Consider `C=CC(=O)N1CCN(c2nc(NCCC(=O)N(C)CCOCCOc3ccc4c(c3)CN(C3CCC(=O)NC3=O)C4=O)nc3c(F)c(-c4c(O)cccc4F)c(Cl)cc23)CC1` [compound 89, 3-((4-(4-acryloylpiperazin-1-yl)-6-chloro-8-fluoro-7-((S)-2-fluoro-6-hydroxyphenyl)quinazolin-2-yl)amino)-N-(2-(2-((2-(2,6-dioxopiperidin-3-yl)-1-oxoisoindolin-5-yl)oxy)ethoxy)ethyl)-N-methylpropanamide], for which the Dmax was ≤ 35%. In addition, for the setting “H2030, 0.3 μM”, the “Percent Degradation at Indicated Concentration (μM)” value is given as “C (Percent Degradation: C ≤ 35)”. The “Percent Degradation at Indicated Concentration (μM)” value (H2030, 1 μM) is listed as “C (Percent Degradation: C ≤ 35)”. For the same compound, the “Percent Degradation at Indicated Concentration (μM)” value (H2030, 3 μM) is given as “C (Percent Degradation: C ≤ 35)”.
On to `C=CC(=O)N1CCN(c2nc(NCCC(=O)N(C)CCOCCOc3ccc4c(c3)C(=O)N(C3CCC(=O)NC3=O)C4=O)nc3c(F)c(-c4cc(O)cc5ccccc45)c(Cl)cc23)CC1` (centres unmarked) [compound 60, 3-((4-(4-acryloylpiperazin-1-yl)-6-chloro-8-fluoro-7-(3-hydroxynaphthalen-1-yl)quinazolin-2-yl)amino)-N-(2-(2-((2-(2,6-dioxopiperidin-3-yl)-1,3-dioxoisoindolin-5-yl)oxy)ethoxy)ethyl)-N-methylpropanamide], for which the “Percent Degradation … 0.3” value (H2030 cells, 0.3 μM) is on record as “C (C ≤ 35)”. Also, the “Percent Degradation … 1” value (H2030 cells, 1 μM) is given as “C (C ≤ 35)”. Besides, the “Percent Degradation … (μM): 3” value (H2030 cells, 3 μM) is “C (C ≤ 35)”. Also, under “H2030 cells”, the Dmax is ≤ 35%.
Take `C=CC(=O)N1CCN(c2nc(NCCC(=O)N(C)CCOCCOCCOCCOc3ccc4c(c3)C(=O)N(C3CCC(=O)NC3=O)C4=O)nc3c(F)c(-c4c(O)cccc4F)c(Cl)cc23)CC1` [compound 73, 3-(((S)-4-(4-acryloylpiperazin-1-yl)-6-chloro-8-fluoro-7-(2-fluoro-6-hydroxyphenyl)quinazolin-2-yl)amino)-N-(2-(2-(2-(2-((2-(2,6-dioxopiperidin-3-yl)-1,3-dioxoisoindolin-5-yl)oxy)ethoxy)ethoxy)ethoxy)ethyl)-N-methylpropanamide]: the Dmax is ≤ 35%. The “Percent Degradation at Indicated Concentration (μM)” value (H2030, 0.3 μM) is “C (Percent Degradation: C ≤ 35)”. The “Percent Degradation at Indicated Concentration (μM)” value (H2030, 1 μM) was “C (Percent Degradation: C ≤ 35)”. In addition, the “Percent Degradation at Indicated Concentration (μM)” value (H2030, 3 μM) is reported as “C (Percent Degradation: C ≤ 35)”.
As to `C=CC(=O)N1CCN(c2nc(NCCC(=O)N(C)CCOCCOc3ccc4c(c3)CN(C3CCC(=O)NC3=O)C4=O)nc3c(F)c(-c4cc(O)cc5ccccc45)c(Cl)cc23)CC1` (centres unmarked) [compound 65, 3-((4-(4-acryloylpiperazin-1-yl)-6-chloro-8-fluoro-7-(3-hydroxynaphthalen-1-yl)quinazolin-2-yl)amino)-N-(2-(2-((2-(2,6-dioxopiperidin-3-yl)-1-oxoisoindolin-5-yl)oxy)ethoxy)ethyl)-N-methylpropanamide], the “Percent Degradation … 0.3” value (H2030 cells, 0.3 μM) was “C (C ≤ 35)”. The “Percent Degradation … 1” value (H2030 cells, 1 μM) was “C (C ≤ 35)”. For the same compound, the “Percent Degradation … (μM): 3” value (H2030 cells, 3 μM) was “C (C ≤ 35)”. Under “H2030 cells”, the Dmax was ≤ 35%.
`C=CC(=O)N1CCN(c2nc(NCCC(=O)N(C)CCOCCOCCOCCOCC(=O)N[C@H](C(=O)N3C[C@H](O)C[C@H]3C(=O)N[C@@H](C)c3ccc(-c4scnc4C)cc3)C(C)(C)C)nc3c(F)c(-c4c(O)cccc4F)c(Cl)cc23)CC1` (atropisomer, axis not shown) [compound 212, (2S,4R)-1-((S)-21-(((R)-4-(4-acryloylpiperazin-1-yl)-6-chloro-8-fluoro-7-(2-fluoro-6-hydroxyphenyl)quinazolin-2-yl)amino)-2-(tert-butyl)-18-methyl-4,19-dioxo-6,9,12,15-tetraoxa-3,18-diazahenicosanoyl)-4-hydroxy-N-((S)-1-(4-(4-methylthiazol-5-yl)phenyl)ethyl)pyrrolidine-2-carboxamide]: the Dmax is ≤ 35%. Also, the “Percent Degradation at Indicated Concentration (μM)” value (H2030, 0.3 μM) is “C (Percent Degradation: C ≤ 35)”. Moreover, the “Percent Degradation at Indicated Concentration (μM)” value (H2030, 1 μM) was “C (Percent Degradation: C ≤ 35)”. The “Percent Degradation at Indicated Concentration (μM)” value (H2030, 3 μM) was “C (Percent Degradation: C ≤ 35)”.
As to `CC(=O)N1CCN(c2nc(NCCC(=O)N(C)CCOCCOCC(=O)N[C@H](C(=O)N3C[C@H](O)C[C@H]3C(=O)N[C@@H](C)c3ccc(-c4scnc4C)cc3)C(C)(C)C)nc3c(F)c(-c4cc(O)cc5ccccc45)c(Cl)cc23)CC1` [compound 201, (2S,4R)-1-((2S)-15-((4-(4-acetylpiperazin-1-yl)-6-chloro-8-fluoro-7-(3-hydroxynaphthalen-1-yl)quinazolin-2-yl)amino)-2-(tert-butyl)-12-methyl-4,13-dioxo-6,9-dioxa-3,12-diazapentadecanoyl)-4-hydroxy-N-((S)-1-(4-(4-methylthiazol-5-yl)phenyl)ethyl)pyrrolidine-2-carboxamide], the Dmax was ≤ 35%. For the same compound, the “Percent Degradation at Indicated Concentration (μM)” value (H2030, 0.3 μM) is “C (Percent Degradation: C ≤ 35)”. Under “H2030, 1 μM”, the “Percent Degradation at Indicated Concentration (μM)” value is listed as “C (Percent Degradation: C ≤ 35)”. In addition, the “Percent Degradation at Indicated Concentration (μM)” value (H2030, 3 μM) is listed as “C (Percent Degradation: C ≤ 35)”.

One may read the Dmax as the greatest extent of degradation seen. Lower therefore signals shallow degradation.
